Experiments:
live HEK293T cells = assay: labeling of live HEK293T cells
B-cell hybridomas = assay: ratiometric imaging of sulfenylation in live cells by TIRF microscopy; assay type: cell-based
Description: Next, whether DiNap-1F could be used for ratiometric imaging sulfenylation in live cells by Total Internal Reflectance Fluorescence (TIRF) microscopy was tested.

## Nc1ccc2c3c(cccc13)C(=O)C(F)=C2O [DiNap-1F]
Live HEK293T cells; live mammalian cells
  cell permeability: validating cell permeability
Live HEK293T cells; time and concentration dependence
  labeling of live mammalian cells: labeled efficiently
B-cell hybridomas
  excitation ratio change over time: clearly elicited a robust excitation ratio change over time

— patent US10718778B2, “Compositions and methods for detecting protein sulfenylation” (THE REGENTS OF THE UNIVERSITY OF MICHIGAN, priority 2014, dated 2020)
